Reference: the supplement of paper PMC10307832

Compound: C1CN(CCN1)C2=CC=C(C=C2)C3=CN4C(=C(C=N4)C5=CC=NC6=CC=CC=C56)N=C3 [DM3189]
Assay: relative viability (nuclei count vs DMSO), 5 days (fraction); higher = more cells survive
Method in brief: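 For viability, nuclei in each treated well were divided by nuclei in vehicle wells and the median across plates was taken. Lung cancer cell lines in 1536-well plates were pinned with five library-drug doses (not always all listed) spaced by √10, cultured 5 days without medium change, and imaged at 4× after Hoechst staining, with plates passing only at control CV below 25% and at least one doubling.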

| Cell Line | relative viability (0.08 µM) | relative viability (0.253 µM) | relative viability (0.8 µM) | relative viability (2.53 µM) |
| --- | --- | --- | --- | --- |
| 201T | 0.981 | 0.981 | 0.843 | 1.04 |
| A549 | 1.06 | 1.06 | 0.993 | 1.08 |
| A-427 | 1.19 | 1 | 0.93 | 0.947 |
| ABC-1 | 1.12 | 0.847 | 0.752 | 0.829 |
| BEN | 0.929 | 0.925 | 0.967 | 0.981 |
| CAL-12T | 1.06 | 0.927 | 0.975 | 1.09 |
| COR-L23 | 1.06 | 0.95 | 0.758 | 0.95 |
| COR-L 105 | 1.22 | 0.95 | 0.853 | 0.808 |
| ChaGo-K-1 | 1.01 | 0.997 | 0.971 | 1 |
| EKVX | 1.21 | 0.949 | 0.887 | 1 |
| EMC-BAC-2 | 1.09 | 0.898 | 0.936 | 1.22 |
| EPLC-272H | 0.975 | 0.823 | 0.917 | 0.896 |
| H3255 | 1.18 | 0.979 | 0.899 | 1.13 |
| HARA | 1.07 | 0.921 | 1.01 | 1.04 |
| HCC-15 | 1.07 | 0.923 | 0.91 | 0.942 |
| HCC-44 | 1.05 | 0.957 | 0.869 | 0.934 |
| HCC-78 | 1.03 | 0.925 | 0.845 | 0.933 |
| HCC-366 | 1.05 | 0.905 | 0.925 | 0.989 |
| HCC-827 | 1.02 | 1 | 0.956 | 0.983 |
| HOP-62 | 1.08 | 0.945 | 0.932 | 1.03 |
| LC-2-ad | 1.07 | 1 | 0.874 | 1.05 |
| LCLC-97TM1 | 1.06 | 0.806 | 0.797 | 0.644 |
| LCLC-103H | 1.06 | 0.935 | 0.951 | 1.02 |
| LK-2 | 0.687 | 0.657 | 0.633 | 0.537 |
| LOU-NH91 | 1.16 | 0.921 | 0.832 | 0.924 |

| Cell Line | relative viability (0.08 µM) | relative viability (0.253 µM) | relative viability (0.8 µM) | relative viability (2.53 µM) |
| --- | --- | --- | --- | --- |
| LU99A | 1.05 | 0.912 | – | 0.933 |
| LXF-289 | 0.996 | 1.04 | 0.973 | 1.14 |
| NCI-H23 | 1.13 | 0.805 | 0.804 | 0.842 |
| NCI-H322M | 1.06 | 0.907 | 0.874 | 0.707 |
| NCI-H358 | 1.01 | 0.869 | 0.843 | 0.913 |
| NCI-H441 | 1.26 | 0.955 | 1.02 | 0.981 |
| NCI-H460 | 1.01 | 0.949 | 0.855 | 1.12 |
| NCI-H520 | 1.05 | 0.79 | 0.844 | 0.683 |
| NCI-H522 | 1.27 | 0.891 | 0.882 | 0.886 |
| NCI-H596 | 1.13 | 0.85 | 1.05 | 0.996 |
| NCI-H647 | 0.954 | 0.824 | 0.734 | 0.794 |
| NCI-H650 | 1.09 | 0.848 | 0.877 | 0.965 |
| NCI-H661 | 1.04 | 0.949 | 1.02 | 1.11 |
| NCI-H727 | 1.02 | 0.815 | 0.735 | 0.986 |
| NCI-H838 | 0.978 | 0.909 | 0.764 | 0.922 |
| NCI-H1355 | 1.01 | 0.968 | 0.842 | 0.951 |
| NCI-H1395 | 1.03 | 0.834 | 0.697 | 0.945 |
| NCI-H1437 | 1.05 | 0.995 | 0.989 | 1 |
| NCI-H1650 | 1.09 | 0.923 | 0.901 | 0.928 |
| NCI-H1651 | 1.03 | 1.02 | 0.96 | 1.16 |
| NCI-H1666 | 1.04 | 1.02 | 1.1 | 1.12 |
| NCI-H1703 | 0.951 | 0.916 | 0.825 | 0.767 |
| NCI-H1734 | 1.13 | 0.95 | 0.916 | 0.888 |
| NCI-H1755 | 0.989 | 0.987 | 0.811 | 1.04 |
| NCI-H1792 | 1.27 | 1 | 0.712 | 0.868 |

| Cell Line | relative viability (0.08 µM) | relative viability (0.253 µM) | relative viability (0.8 µM) | relative viability (2.53 µM) |
| --- | --- | --- | --- | --- |
| NCI-H1793 | 1.22 | 0.991 | 0.929 | 1.01 |
| NCI-H1915 | 1.03 | 0.942 | 0.793 | 0.87 |
| NCI-H1944 | 1.19 | 0.991 | – | 1.02 |
| NCI-H1975 | 1.07 | 0.972 | 0.793 | 0.881 |
| NCI-H1993 | 1.01 | 0.913 | 0.831 | 1.05 |
| NCI-H2009 | 1.1 | 1.03 | 0.893 | 1.05 |
| NCI-H2023 | 1 | 0.955 | 0.978 | 0.854 |
| NCI-H2085 | 1 | 0.933 | 1.04 | 1.03 |
| NCI-H2087 | 1.26 | 1.02 | 1.08 | 0.979 |
| NCI-H2126 | 1.12 | 1.01 | 0.961 | 0.942 |
| NCI-H2170 | 1.06 | 1.01 | 0.981 | 0.946 |
| NCI-H2228 | 1.18 | 1.1 | 0.811 | 0.447 |
| NCI-H2342 | 0.988 | 0.99 | 0.948 | 0.97 |
| NCI-H2347 | 1.2 | 1.03 | 0.945 | 1.02 |
| NCI-H2405 | 1.1 | 0.975 | 0.951 | 1.03 |
| NCI-H3122 | 0.992 | 0.901 | 0.905 | 0.975 |
| PC-3 [JPC-3] | 1.13 | 1.01 | 1.04 | 1.1 |
| PC-14 | 1.14 | 0.954 | 0.871 | 0.932 |
| RERF-LC-KJ | 1.16 | 1.04 | 1.04 | 1.05 |
| SK-LU-1 | 1.03 | 0.793 | 0.814 | 0.749 |
| SK-MES-1 | 1.04 | 0.981 | 0.853 | 0.94 |
| SW 1573 | 1.06 | 0.938 | 0.903 | 0.81 |
| UMC-11 | 1.05 | 0.958 | 0.816 | 0.795 |
